# Test results as given in patent US20120283235A1, “Dermatologic and Cosmetic Compositions” (DISCOVERY PARTNERS LLC, priority 2009, published 2012).
# Test system: Adult human dermal fibroblasts
# Test: Collagen type I in human dermal fibroblast conditioned media
# Type: cell-based
# Conditions: MAP 100 ug/ml; Vit. C 10 ug/ml; FIG. 1
# Experimental: Adult human dermal fibroblasts (facial cells, from Cell Applications, Inc. San Diego, Calif., Catalog #106-05A, Lot 1339) were incubated for seventy-two hours in Fibroblast Growth Serum (Cell Applications, cat. #116-500). Four test formulations, each formulation used at three final test sample dilutions of 2.5%, 0.5% and 0.05%, were added to the incubated cells. All concentrations expressed in weight/weight unless otherwise noted: • (i) Test Formulation #1, CHL-01-057 (labeled “1”) served as a control and contained 90% purified water and 10% butylene glycol; • (ii) Test Formulation #2, CHL-01-053 (labeled “2”) containing 0.2% of 1-Disodium Copper Chlorin E4 in 10% butylene glycol and 89.8% purified water; • (iii) Test Formulation #3, (labeled #3) CHL-01-0 51 containing 0.2% Sodium Copper Chlorophyllin complex, USP in 10% butylene glycol and 89.8% purified water; • (iv) Test Formulation #4, CHL-01-055 (labeled “4”) containing 0.2% Sodium Zinc Chlorophyllin in 10% butylene glycol and 89.8% purified water. Based on the final dilutions, the amount of chlorin, chlorophyllin, or control compound added to the cell culture was 50 ppm, 10 ppm, and 1 ppm (ppm=parts per million by weight). Each of the above formulations was prepared by adding butylene glycol to water and mixing on a heating plate with a magnetic stirrer until the glycol fully dissolved. […]
row,SMILES,stimulatory activity on type 1 collagen production (positive controls)
1,"O=C1O[C@H]([C@@H](O)CO)C([O-])=C1OP(=O)([O-])[O-].O=C1O[C@H]([C@@H](O)CO)C([O-])=C1OP(=O)([O-])[O-].[Mg+2].[Mg+2].[Mg+2] [Magnesium Ascorbyl Phosphate, magnesium ascorbyl phosphate]",strong stimulatory activity
2,"O=C1O[C@H]([C@@H](O)CO)C(O)=C1O [vitamin C, ascorbic acid]",strong stimulatory activity
